Data: patent publication US7737155B2, “Nitrogen-containing heterocyclic compounds and methods of use thereof” (Schering Corporation, priority 2005, dated 2010)
Read-outs that look alike come from different tables or passages of the source.

Molecular target: recombinant human nicotinic acid receptor (NAR) (Homo sapiens, UniProt Q8TDS4)
Assay: Nicotinic Acid Receptor Assay: inhibition of forskolin-stimulated cAMP accumulation in CHO cells (MesoScale Discovery cAMP kit)
Assay type: cell-based
Conditions: CHO cells expressing recombinant human NAR
Experimental: The nicotinic acid receptor agonist activity of the inventive compounds was determined by following the inhibition of forskolin-stimulated cAMP accumulation in cells using the MesoScale Discovery cAMP detection kit following the manufacture's protocol. Briefly, Chinese Hamster Ovary (CHO) cells expressing recombinant human nicotinic acid receptor (NAR) were harvested enzymatically, washed 1× in phosphate buffered saline (PBS) and resuspended in PBS containing 0.5 mM IBMX at 3×10^6 cells/mL. Ten μL of cell suspension was added to each well of a 384-well plate which contained 10 μL of test compounds. Test compounds were diluted with PBS containing 6 μM of forskolin. Plates were incubated for 30 minutes at room temperature after the addition of cells. Lysis buffer containing cAMP-Tag was added to each well (10 μL/well) as per the manufacturer's protocol. Plates were then incubated from 45 minutes to overnight. Prior to reading, 10 μL of read buffer was added to each well, and the plate was read in a Sector 6000 plate imager. The signal was converted to cAMP concentration using a standard curve run on each plate.

[1] = forskolin-stimulated cAMP, read-out: NA EC50 camp
[2] = inhibition of forskolin-stimulated cAMP accumulation, read-out: NA EC50 camp
[3] = NA EC50 camp (nM), forskolin-stimulated cAMP

Sequence of recombinant human nicotinic acid receptor (NAR) (Q8TDS4 whole entry): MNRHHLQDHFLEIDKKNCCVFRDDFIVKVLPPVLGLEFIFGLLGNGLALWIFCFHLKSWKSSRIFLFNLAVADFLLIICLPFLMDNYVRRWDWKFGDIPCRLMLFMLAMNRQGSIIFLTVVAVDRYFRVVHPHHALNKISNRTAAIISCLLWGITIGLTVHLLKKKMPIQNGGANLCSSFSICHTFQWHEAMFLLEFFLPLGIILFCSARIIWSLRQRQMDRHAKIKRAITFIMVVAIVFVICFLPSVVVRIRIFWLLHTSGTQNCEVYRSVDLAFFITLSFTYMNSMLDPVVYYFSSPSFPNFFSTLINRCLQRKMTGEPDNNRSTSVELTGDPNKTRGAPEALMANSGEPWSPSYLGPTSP

| EC50 [1] [nM] | Structure (SMILES) | further results |
| --- | --- | --- |
| 100 to 1000 | CCOc1nc2oc(=O)cc(CCC3CCCC3)c2c(=O)[nH]1 [Compound 687] |  |
| > 1000 | CCc1cc(=O)oc2nc(OCc3cccc(-c4cccc5cccnc45)c3)[nH]c(=O)c12 [Compound 560] |  |
| 100 to 1000 | CCc1cc(=O)oc2nc(OCc3ccc(-c4cccc(OC)c4)cc3F)[nH]c(=O)c12 [Compound 572] |  |
|  | CCC#CC(C)Oc1nc2oc(=O)cc(CC)c2c(=O)[nH]1 (stereo not shown) [Compound 730] | EC50 [2]: 156 nM |
| > 1000 | CCc1cc(=O)oc2nc(OCc3cccc(-c4ccc(F)c(Cl)c4)c3)[nH]c(=O)c12 [Compound 558] |  |
| > 1000 | CCc1cc(=O)oc2nc(OCc3ccccc3-c3ccc(F)cc3)[nH]c(=O)c12 [Compound 510] |  |
| 0.001 to 100 | C#CCCCCc1cc(=O)oc2[nH]c(=O)[nH]c(=O)c12 [Compound 226] |  |
| 100 to 1000 | CCc1noc(C)c1COc1nc2oc(=O)cc(CCC3CCCC3)c2c(=O)[nH]1 [Compound 689] |  |
| 100 to 1000 | CCc1cc(=O)oc2nc(OCc3cccc(C(F)(F)F)n3)[nH]c(=O)c12 [Compound 568] |  |
|  | O=c1cc(CCCC2CC2)c2c(=O)n(CCF)c(=O)[nH]c2o1 [Compound 804] | EC50 [2]: 178 nM |
| > 1000 | O=c1cc(Cc2ccccc2)c2c(=O)[nH]c(OCc3ccccc3)nc2o1 [Compound 627] |  |
|  | CCCCc1cc(=O)oc2nc(CF)[nH]c(=O)c12 [Compound 809] | EC50 [2]: 187 nM |
| > 1000 | O=c1[nH]c(=O)c2c(CC3CCNC3)cc(=O)oc2[nH]1 (stereo not shown) [Compound 244] |  |
| > 1000 | CC(C)(C)Cc1cc(=O)oc2[nH]c(=O)[nH]c(=O)c12 [Compound 240] |  |
| 100 to 1000 | CCc1cc(=O)oc2nc(OCc3cc(C)n(C)n3)[nH]c(=O)c12 [Compound 530] |  |
|  | COn1c(=O)[nH]c2oc(=O)cc(CCCC3CC3)c2c1=O [Compound 774] | EC50 [2]: 28 nM |
| > 1000 | O=C(NCCCc1cc(=O)oc2[nH]c(=O)[nH]c(=O)c12)OCc1ccccc1 [Compound 228] |  |
| > 1000 | CCc1cc(=O)oc2nc(OCc3ccccc3-c3cccc(Cl)c3)[nH]c(=O)c12 [Compound 554] |  |
| 100 to 1000 | CCc1cc(=O)oc2nc(OCc3ccc(C(F)(F)F)cn3)[nH]c(=O)c12 [Compound 545] |  |
| > 1000 | CCOc1ccc(-c2c(CCC3CCC3)c3c(=O)[nH]c(=O)[nH]c3oc2=O)cc1 [Compound 703] |  |
| 0.001 to 100 | CCc1cc(=O)oc2nc(OCC#Cc3cccc(Cl)c3)[nH]c(=O)c12 [Compound 626] |  |
|  | O=c1nc(OCC(F)F)c2c(CCCC3CC3)cc(=O)oc2[nH]1 [Compound 831] | EC50 [2]: 531 nM |

| EC50 [1] [nM] | Structure (SMILES) | further results |
| --- | --- | --- |
|  | CCC#CCOc1nc2oc(=O)cc(CCCC)c2c(=O)[nH]1 [Compound 734] | EC50 [2]: 71.8 nM |
| > 1000 | CC(Cc1cc(=O)oc2[nH]c(=O)[nH]c(=O)c12)CC(C)(C)C (stereo not shown) [Compound 248] |  |
| 100 to 1000 | CCc1cc(=O)oc2nc(OCc3ccncc3F)[nH]c(=O)c12 [Compound 625] |  |
| 100 to 1000 | O=c1[nH]c(=O)c2c(CCCOC3CCCC3)cc(=O)oc2[nH]1 [Compound 271] |  |
| > 1000 | CCn1c(=O)[nH]c(=O)c2c(CCC3CC3)cc(=O)oc21 [Compound 277] |  |
|  | CCc1cc(=O)oc2nc(OCc3ccc(-c4cncnc4)cc3F)[nH]c(=O)c12 [Compound 575] | EC50 [3]: 100 to 1000 nM |
|  | CCCCc1cc(=O)oc2[nH]c(=O)n(CC(F)F)c(=O)c12 [Compound 821] | EC50 [2]: 142 nM |
| 100 to 1000 | CCc1cc(=O)oc2nc(OCc3ccccc3-c3cccc(C(N)=O)c3)[nH]c(=O)c12 [Compound 585] |  |
|  | CCCCc1cc(=O)oc2[nH]c(=O)n(CCF)c(=O)c12 [Compound 818] | EC50 [2]: 308 nM |
| 100 to 1000 | COC(=O)CCc1cc(=O)oc2[nH]c(=O)[nH]c(=O)c12 [Compound 216] |  |
|  | CCc1cc(=O)oc2nc(OCc3ccccc3-c3cccc(C#N)c3)[nH]c(=O)c12 [Compound 509] | EC50 [3]: 100 to 1000 nM |
| > 1000 | CC(C)CCc1cc(=O)oc2c1c(=O)[nH]c(=O)n2CC1CC1 [Compound 259] |  |
|  | CCc1cc(=O)oc2nc(OCC#CCCCO)[nH]c(=O)c12 [Compound 645] | EC50 [3]: 0.001 to 100 nM |
| 100 to 1000 | CCc1cc(=O)oc2nc(OCC3=Cc4ccccc4S3(=O)=O)[nH]c(=O)c12 [Compound 604] |  |
| > 1000 | CC(=O)Nc1ccc(-c2c(CCC3CCC3)c3c(=O)[nH]c(=O)[nH]c3oc2=O)cc1 [Compound 704] |  |
|  | O=c1cc(CCC2CC2)c2c(=O)n(C3CCC3)c(=O)[nH]c2o1 [Compound 780] | EC50 [2]: 36 nM |
| > 1000 | C=COCCOc1nc2oc(=O)cc(CC)c2c(=O)[nH]1 [Compound 581] |  |
| > 1000 | CCc1cc(=O)oc2nc(OCc3ccc(C)c(C(F)(F)F)c3)[nH]c(=O)c12 [Compound 516] |  |
| > 1000 | CCCCc1c(-c2ccc(F)cc2)c(=O)oc2[nH]c(=O)[nH]c(=O)c12 [Compound 706] |  |
| 100 to 1000 | CCCCc1c(-c2ccc(C(F)(F)F)cc2)c(=O)oc2[nH]c(=O)[nH]c(=O)c12 [Compound 708] |  |
| 0.001 to 100 | CCCCCCc1cc(=O)oc2nc(ONC(=O)OCC)[nH]c(=O)c12 [Compound 692] |  |
| 100 to 1000 | CCc1cc(=O)oc2nc(OCc3cnc(Br)s3)[nH]c(=O)c12 [Compound 608] |  |

| EC50 [1] [nM] | Structure (SMILES) | further results |
| --- | --- | --- |
| > 1000 | CC#CCCc1cc(=O)oc2[nH]c(=O)[nH]c(=O)c12 [Compound 217] |  |
| 100 to 1000 | CCc1cc(=O)oc2nc(OCc3ccccc3-n3cncn3)[nH]c(=O)c12 [Compound 571] |  |
|  | COn1c(=O)[nH]c(=O)c2c(CCC3CCCC3)cc(=O)oc21 [Compound 773] | EC50 [2]: 48.5 nM |
| 100 to 1000 | CCC#CC(C)Oc1nc2oc(=O)cc(CC)c2c(=O)[nH]1 (stereo not shown) [Compound 639] |  |
| 100 to 1000 | CCc1cc(=O)oc2nc(OCc3ccc(-c4ccccc4)cc3F)[nH]c(=O)c12 [Compound 518] |  |
| 100 to 1000 | CCOc1nc2oc(=O)cc(CCC(C)C)c2c(=O)[nH]1 [Compound 686] |  |
| 100 to 1000 | CCc1cc(=O)oc2nc(OCc3cc(C)nn3C(C)(C)C)[nH]c(=O)c12 [Compound 673] |  |
| 100 to 1000 | CCc1cc(=O)oc2nc(OCc3snnc3-c3ccccc3)[nH]c(=O)c12 [Compound 532] |  |
|  | CCc1cc(=O)n(C)c2[nH]c(=O)[nH]c(=O)c12 [Compound 808] | EC50 [2]: > 10000 nM |
| > 1000 | CCc1cc(=O)oc2nc(OCCOC3CCCC3)[nH]c(=O)c12 [Compound 606] |  |
| > 1000 | CC/C=C\CCc1cc(=O)oc2c1c(=O)[nH]c(=O)n2CC1CC1 [Compound 253] |  |
| 100 to 1000 | CCc1cc(=O)oc2nc(OCC(=O)c3ccccc3)[nH]c(=O)c12 [Compound 603] |  |
| 100 to 1000 | O=c1cc(CCC2CC2)c2c(=O)[nH]c(=O)n(C3CCC3)c2o1 [Compound 274] |  |
| > 1000 | CCc1cc(=O)oc2nc(OCc3ccccc3C#N)[nH]c(=O)c12 [Compound 611] |  |
|  | CCc1cc(=O)oc2nc[nH]c(=O)c12 [Compound 807] | EC50 (NA EC50 camp, inhibition of forskolin-stimulated cAMP accumulation): > 10000 nM |
| 100 to 1000 | CCc1cc(=O)oc2nc(OCc3cccc(-c4cccc(OC)c4)c3)[nH]c(=O)c12 [Compound 561] |  |
| > 1000 | O=c1[nH]c(=O)c2c(CCC#Cc3ccccc3)cc(=O)oc2[nH]1 [Compound 220] |  |
| 100 to 1000 | CCc1cc(=O)oc2nc(OCc3ccc4c(c3)nnn4C)[nH]c(=O)c12 [Compound 543] |  |
| > 1000 | O=C(OCc1ccccc1)N1CCC(CCc2cc(=O)oc3[nH]c(=O)[nH]c(=O)c23)CC1 [Compound 234] |  |
| > 1000 | CCc1cc(=O)oc2nc(OCc3ccccc3-c3cccc(C)c3)[nH]c(=O)c12 [Compound 550] |  |
